Laboratory results published in PMC6261253 (Nature, 2018).

T1: DHX36-AAA (Bos taurus, UniProt Q05B79, K192A/K193A/K194A)
T1 sequence (Q05B79 55-1010 K192A/K193A/K194A): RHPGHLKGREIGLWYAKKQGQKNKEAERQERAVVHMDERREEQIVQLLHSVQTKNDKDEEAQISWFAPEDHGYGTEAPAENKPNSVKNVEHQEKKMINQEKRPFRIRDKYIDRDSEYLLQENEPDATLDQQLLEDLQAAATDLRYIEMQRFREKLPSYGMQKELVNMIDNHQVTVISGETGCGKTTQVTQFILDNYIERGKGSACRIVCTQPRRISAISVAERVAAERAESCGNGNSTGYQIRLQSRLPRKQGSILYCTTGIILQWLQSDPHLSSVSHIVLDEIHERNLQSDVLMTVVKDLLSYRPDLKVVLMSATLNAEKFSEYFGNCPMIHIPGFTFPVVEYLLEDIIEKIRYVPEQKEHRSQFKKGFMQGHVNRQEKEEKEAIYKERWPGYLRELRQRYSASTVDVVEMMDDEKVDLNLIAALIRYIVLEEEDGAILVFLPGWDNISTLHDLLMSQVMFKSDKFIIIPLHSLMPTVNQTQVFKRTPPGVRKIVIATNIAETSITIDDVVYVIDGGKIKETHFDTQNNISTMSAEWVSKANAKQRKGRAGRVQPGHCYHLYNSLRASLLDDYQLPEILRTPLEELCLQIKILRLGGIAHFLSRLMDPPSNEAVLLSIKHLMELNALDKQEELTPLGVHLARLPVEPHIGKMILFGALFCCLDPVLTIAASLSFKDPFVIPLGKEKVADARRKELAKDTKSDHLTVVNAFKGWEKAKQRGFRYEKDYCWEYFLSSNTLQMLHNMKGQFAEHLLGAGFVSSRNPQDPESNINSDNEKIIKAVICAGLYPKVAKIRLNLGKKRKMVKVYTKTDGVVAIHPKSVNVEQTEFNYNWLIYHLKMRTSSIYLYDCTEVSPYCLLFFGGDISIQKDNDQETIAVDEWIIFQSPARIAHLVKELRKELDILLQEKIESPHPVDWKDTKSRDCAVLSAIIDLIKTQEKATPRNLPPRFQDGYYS

T2: DHX36-DSM (crystallization construct) (Bos taurus, UniProt Q05B79 55-1010, E435Y;E436Y;K437Y;K752A;D753A;K755A;del1-54;del111-159)
T2 sequence: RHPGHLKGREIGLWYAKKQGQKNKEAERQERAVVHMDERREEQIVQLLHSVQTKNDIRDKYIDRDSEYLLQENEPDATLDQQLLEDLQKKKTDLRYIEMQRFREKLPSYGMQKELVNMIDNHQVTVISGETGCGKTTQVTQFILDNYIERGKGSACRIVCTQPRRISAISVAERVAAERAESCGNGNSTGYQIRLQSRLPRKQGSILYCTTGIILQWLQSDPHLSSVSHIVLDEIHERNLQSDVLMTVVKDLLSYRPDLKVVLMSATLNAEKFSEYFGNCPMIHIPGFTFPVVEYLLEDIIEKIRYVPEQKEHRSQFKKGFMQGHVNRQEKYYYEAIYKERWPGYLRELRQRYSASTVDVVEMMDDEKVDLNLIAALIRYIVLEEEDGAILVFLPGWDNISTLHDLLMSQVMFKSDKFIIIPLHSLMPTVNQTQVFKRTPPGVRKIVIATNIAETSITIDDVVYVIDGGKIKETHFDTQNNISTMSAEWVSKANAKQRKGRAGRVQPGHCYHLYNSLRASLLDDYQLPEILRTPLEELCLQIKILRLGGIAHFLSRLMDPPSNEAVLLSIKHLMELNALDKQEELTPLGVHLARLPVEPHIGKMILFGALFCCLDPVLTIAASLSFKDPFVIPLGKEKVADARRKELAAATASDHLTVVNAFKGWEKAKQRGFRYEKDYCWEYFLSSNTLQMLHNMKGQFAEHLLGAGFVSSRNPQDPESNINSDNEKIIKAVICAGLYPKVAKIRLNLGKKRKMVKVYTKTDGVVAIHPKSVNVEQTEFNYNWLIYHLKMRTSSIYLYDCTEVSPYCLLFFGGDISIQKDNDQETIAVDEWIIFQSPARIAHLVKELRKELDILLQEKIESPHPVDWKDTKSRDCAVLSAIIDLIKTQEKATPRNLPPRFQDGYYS


Legend:
DHX36-AAA = target: T1, DHX36-AAA; assay: single-molecule FRET, helicase dissociation from G-quadruplex DNA; format: biochemical; details: ATP added to DHX36-AAA bound to c-Myc G-quadruplex DNA with 3' T9 tail
[1] = target: T2, DHX36-DSM (crystallization construct); assay: X-ray crystallography

Molecule | single-molecule FRET, helicase dissociation from G-quadruplex DNA (DHX36-AAA) | binding result [1]
Nc1ncnc2c1ncn2[C@@H]1O[C@H](COP(=O)(O)OP(=O)(O)OP(=O)(O)O)[C@@H](O)[C@H]1O [ATP] | Addition of ATP (red arrow) while DHX36-AAA is displaying repetitive unfolding activity | –
AGGGTGGGTAGGGTGGGTTTTTTT (structured_DNA) [DNAMyc] | – | binds
